{"source": "patent US7829110B2", "about": "“Surgical implant comprising an anabolic and a corticosteroid” (Ethicon, Inc., priority 2003, dated 2010)", "system": "fibroblast (human, dermal)", "test": "fibroblast contraction (human, dermal)", "type": "cell-based", "conditions": "human dermal fibroblasts; even at low doses", "from_the_text": "Cortisone prevents fibroblast contraction (human, dermal) even at low doses (below 10^−6 M)"}
{"molecule": "C[C@]12CCC(=O)C=C1CC[C@@H]1[C@@H]2C(=O)C[C@@]2(C)[C@H]1CC[C@]2(O)C(=O)CO", "note": "[Cortisone, cortisone]", "values": [{"measurement": "dose preventing fibroblast contraction", "value": "below 10^−6 M"}]}
